US8470783B2, “Medicinal use of histone deacetylase inhibitor and method of evaluating antitumor effect thereof” (Astellas Pharma Inc., priority 2001, dated 2013)

Columns and labels:
[1] = tested on: human lymphoma cell line U937; test: Survival test, human lymphoma U937 implanted intraperitoneally in SCID mice (Example 2); format: in vivo, mouse; conditions: U937, i.p. once or twice a week, 0.1-1.0 mg/kg, FIG. 2
Procedure: A necessary amount of FR901228 was weighed and a solvent (10% HCO-60/saline) was added. The mixture was sonicated to allow for dissolution.
For antitumor test of the pharmaceutical agent, Fox Chase C. B-17/Icr-SCID.Jcl mice (male, 6-week-old) were purchased from CLEA JAPAN INC. and, after acclimation for not less than one week, used for the test. The mice were reared under an SPF environment and allowed a free access to water and feed.
Cultured human lymphoma cell line (U937: obtained from Dr. Minowada, Hayashibara Biochemical Laboratories, Inc.) was cultured in RPMI (containing 10% FCS) and subcultured in vitro.
Cyclo phosphamide (Shionogi & Co., Ltd., 150 mg/kg) was intraperitoneally administered to mice. Lymphoma (1×10^7 cells) subcultured in vitro was intraperitoneally implanted the next day. After the tumor implantation, the mice were grouped into 6 (control group 12) mice per group to level the body weight.
The administration was started on the day of grouping (Day 0). FR901228 was intraperitoneally administered to an FR901228 administration group once or twice a week (0.1-1.0 mg/kg). Only a solvent (10% HCO-60/saline) was administered to a control group.
As an antitumor effect, the survival days of the mice were counted.

[2] = tested on: human prostate cancer cell line PC-3; test: Antitumor test, human prostate cancer PC-3 solid tumor in nude mice (Example 3); format: in vivo, mouse; conditions: dose of 3.2 mg/kg i.v. q4d×3, FIG. 3(a)
Procedure: (§1) A necessary amount of FR901228 was weighed and a solvent (10% HCO-60/saline) was added. The mixture was sonicated to allow for dissolution. A positive control substance Paclitaxel was dissolved in Cremophor EL/ethanol (1:1) solution to 24 mg/mL prior to the testing, and preserved in a refrigerator. When in use, it was diluted with a 9-fold amount of physiological saline to 2.4 mg/mL (solvent component: 5% Cremophor EL-5% ethanol-90% saline).
(§2) For antitumor test of the pharmaceutical agent, BALB/cANnNCrj-nu/nu mice (male, […]) were purchased from Charles River Japan and, after acclimation for not less than one week, used for the test. The mice were reared under an SPF environment and allowed a free access to water and feed. […]
(§3) The administration was started on the day of grouping (Day 0). […] The amount of liquid for each administration was calculated (0.1 mL/10 g body weight) based on the body weight measured on the administration day. […]
(§4) The tumor size (longer diameter, shorter diameter) and body weight were measured twice a week from Day 0.
(§5) The level of tumor growth was evaluated based on the tumor growth rate (Relative Tumor Volume). […] The antitumor effect was determined on the 14th day (Day 14) from the start of the administration of a pharmaceutical agent. […]

[3] = tested on: human prostate cancer PC-3; test: In vivo growth suppression rate, PC-3 tumor-carrying mice; set-up: species or system mouse; conditions: PC-3, FR901228 3.2 mg/kg
Procedure: (§6) The growth suppression rate of human prostate cancer PC-3, human gastric cancer SC-6, human kidney cancer ACHN and human kidney cancer A498 by the administration of FR901228 (3.2 mg/kg) was 98%, 84%, 20% and 29%, respectively. Therefore, PC-3 and SC-6 were determined to be FK228 sensitive tumors, and ACHN and A498 were determined to be FK228 resistant tumors.

histone deacetylase = conditions: Nakajima, H. et al (1998); cited from earlier work
[4] = tested on: human gastric cancer SC-6; test: In vivo growth suppression rate, SC-6 tumor-carrying mice; set-up: species or system mouse; conditions: SC-6, FR901228 3.2 mg/kg
Procedure: as §6

[5] = tested on: human kidney cancer cell line ACHN; test: Antitumor test, human kidney cancer ACHN solid tumor in nude mice (Example 3); format: in vivo, mouse; conditions: i.v. q4d×3, FIG. 3(b)
Procedure: as §1, §2, §3, §4, §5

human kidney cancer ACHN [6] = test: In vivo growth suppression rate, ACHN tumor-carrying mice; set-up: species or system mouse; conditions: FR901228 3.2 mg/kg
Procedure: as §6

[7] = tested on: p21 gene expression in PC-3 cells; test: p21 gene expression in vitro by real time PCR, PC-3 (Example 4); format: cell-based, human; conditions: PC-3, FR901228 5 ng/mL, FIG. 4(a)
Procedure: (§7) A necessary amount of FR901228 was weighed and dissolved in a solvent (99.5% ethanol) to the concentration of 1 mg/mL. Then, the solution was diluted with culture medium.
(§8) Cultured human cancer cell (PC-3 and ACHN) were cultured in DMEM (containing 10% FCS).
(§9) The cells were inoculated at 2×10^6 cells per a culture dish, and cultured in the presence of FR901228 (5 ng/mL) for a given time. After culturing, RNA was extracted with a TRIZOL reagent (GIBCO BRL) according to the operation manual.
(§10) RNA was subjected to reverse transcription using a Taq-man reverse transcription reagent (PE Biosystem) according to the operation manual. Thereafter, p21 gene was amplified using a SYBR green PCR master mix (PE Biosystem) and primer 5′-GGCAGACCAGCATGACACATT-3′ (p21 upstream)(SEQ ID; No 1), 5′-GGATTAGGGCTTCCTCTTGGAG-3′ (SEQ ID; No 2) according to the operation manual, and detected with ABI 7700 PRISM sequence detector (PE Biosystem). The expression amount of p21 gene was calculated from a standard curve, divided by the expression amount of β-actin gene, which was used as an internal standard, and expressed in a standardized relative expression amount.

[8] = tested on: p21 gene expression in ACHN cells; test: p21 gene expression in vitro by real time PCR, ACHN (Example 4); format: cell-based, human; conditions: FR901228 5 ng/mL, FIG. 4(b)
Procedure: as §7, §8, §9, §10

[9] = tested on: p21 gene and c-myc gene expression in PC-3 tumor; test: p21 and c-myc gene expression in vivo in PC-3 tumor of nude mouse (Example 5); conditions: 3.2 mg/kg i.v.
Procedure: (§11) Human prostate cancer PC-3 or kidney cancer ACHN was subcutaneously implanted in a nude mouse, and when the size of the tumor reached 100-300 mg, FR901228 (3.2 mg/kg) was intravenously administered. The tumor was removed with the lapse of time, and after extracting RNA, the expression amount of p21 gene and c-myc gene was examined by real time PCR in the same manner as in Example 4. The c-myc gene was amplified using a SYBR green PCR master mix (PE Biosystem) and primer 5′-GACAGATCAGCAACAACCGAAA-3′ (human c-myc upstream)(SEQ ID; No 3), 5′-TTGTGTGTTCGCCTCTTGACAT-3′ (human c-myc downstream)(SEQ ID; No 4) according to the operation manual, and detected with ABI 7700 PRISM sequence detector (PE Biosystem).

[10] = tested on: p21 gene and c-myc gene expression in ACHN tumor; test: p21 and c-myc gene expression in vivo in ACHN tumor of nude mouse (Example 5); conditions: 3.2 mg/kg i.v.
Procedure: as §11

human kidney cancer A498 = test: In vivo growth suppression rate, A498 tumor-carrying mice; set-up: species or system mouse; conditions: A498, FR901228 3.2 mg/kg
Procedure: as §6

[11] = tested on: human prostate cancer cell line PC-3; test: Antitumor test, human prostate cancer PC-3 solid tumor in nude mice (Example 1); format: in vivo, mouse; conditions: PC-3, i.v. q4d×3, 3.2 and 1.8 mg/kg, FIG. 1
Procedure: as §1
For antitumor test of the pharmaceutical agent, BALB/cANnNCrj-nu/nu mice (male, 6-week-old) were purchased from Charles River Japan and, after acclimation for not less than one week, used for the test. The mice were reared under an SPF environment and allowed a free access to water and feed. […]
as §3, §4
The level of tumor growth was evaluated based on the tumor growth rate (Relative Tumor Volume). […] The antitumor effect was determined on the 14th day (Day 14) from the start of the administration of the pharmaceutical agent. […]

[12] = tested on: human prostate cancer PC-3; test: In vitro growth suppression, PC-3; format: cell-based; conditions: PC-3, contacted for 72 hr
human kidney cancer ACHN [13] = test: In vitro growth suppression, ACHN; format: cell-based; conditions: contacted for 72 hr
human lymphoma U937 = test: In vitro growth suppression, U937; format: cell-based; conditions: U937, contacted for 72 hr

| growth suppression effect in IC50 value [12] | growth suppression effect in IC50 value (human kidney cancer ACHN [13]) | growth suppression effect in IC50 value (human lymphoma U937) | Molecule | antitumor effect in vivo against human lymphoma (survival of mice) [1] | antitumor effect against PC-3 (tumor growth rate) [2] | growth suppression rate [3] | histone deacetylase inhibitory activity (histone deacetylase) | growth suppression rate [4] | antitumor effect against ACHN (tumor growth rate) [5] | growth suppression rate (human kidney cancer ACHN [6]) | p21 gene expression in vitro [7] | p21 gene expression in vitro [8] | c-myc gene expression in vivo [9] | time of peak of p21 gene expression after administration [9] | p21 gene expression in vivo ([9]; FIG. 5(a)) | c-myc gene expression in vivo [10] | p21 gene expression in vivo ([10]; FIG. 5(a)) | growth suppression rate (human kidney cancer A498) | antitumor effect in vivo against human prostate cancer (tumor growth rate) [11] |
| --- | --- | --- | --- | --- | --- | --- | --- | --- | --- | --- | --- | --- | --- | --- | --- | --- | --- | --- | --- |
| – | – | – | C/C=C1\NC(=O)[C@H]2CSSCC/C=C/[C@H](CC(=O)N[C@H](C(C)C)C(=O)N2)OC(=O)[C@H](C(C)C)NC1=O [FR901228] | showed an antitumor effect | potent antitumor effect | 98% | stronger histone deacetylase inhibitory activity | 84% | did not show an antitumor effect | 20% | increased expression of the p21 gene with the lapse of time | did not show increased expression of p21 gene | decreased expression | 3 h | increased expression of p21 gene | increased expression | did not show increased expression of p21 gene | 29% | showed an antitumor effect |
| 3.17 ng/mL | 4.25 ng/mL | 3.20 ng/mL | FK228 | – | – | – | – | – | – | – | – | – | – | – | – | – | – | – | – |
